Measured values taken from patent US20170128418A1, “COMPOSITIONS AND METHODS FOR IMPROVING LACTATION” (UNIVERSITY OF CINCINNATI, priority 2012, published 2017).

How the values were obtained:
[1] = system: PTHrP; experiment: 5-HTP injection rescue of TPH1 knockout mice, plasma PTHrP (IRMA); format: in vivo; conditions: TPH1 knockout mice injected with 5-HTP; P<0.0001, R=0.92
Experimental: TPH1^−/−, and corresponding wild type control animals (C57BL/6J genetic background) were bred and maintained in our animal facility. All experiments were performed under protocols approved by the University of Cincinnati Institutional Animal Care and Use Committee. Plasma was collected for PTHrP assay from non-lactating wild type mice and both wild type and TPH1^−/− animals on day 10 of lactation. Mammary gland tissues (#4 glands counted from most rostral) were collected for immunostaining from TPH1^−/− animals and wild type controls on day 10 of lactation, and were fixed in 4% paraformaldehyde, before being paraffin embedded and sectioned.
PTHrP IRMA. Plasma PTHrP levels were measured using a two-site immunoradiometric assay specific for PTHrP 1-86 (Becton Dickinson), following the manufacturer's instructions. The detection limit (blank serum+1 standard deviation) was 0.3 pM under the conditions of this assay.
The conversion of L-tryptophan to 5-hydroxytryptophan (5-HTP) is the rate-limiting step in 5-HT synthesis; therefore we injected 5-HTP to bypass the enzyme deficiency in TPH1 mice, and measured PTHrP plasma levels.

[2] = Circulating 5-HT and PTHrP in rats fed a 5-HTP supplemented diet; format: in vivo; conditions: rats fed 0.2% 5-HTP diet from d13 pregnancy through d9 lactation vs control breeder diet
Experimental: FIG. 1 depicts the circulating levels of (A) serum 5-HT and (B) plasma PTHrP in rats fed 0.2% 5-HTP from d13 pregnancy through d9 lactation compared to rats fed a control breeder diet.
Based on the foregoing results, studies were conducted to establish, in practice, that feeding a diet supplemented with 5-HTP would elevate circulating levels of serotonin (5-HT) and PTHrP. Rats were fed a diet supplemented with 0.2% 5-HTP, and circulating levels of 5-HT (serum) and PTHrP (plasma) in the rats fed 0.2% 5-HTP from d13 pregnancy through d9 lactation were compared to rats fed a control breeder diet.

[3] = Serum and milk calcium in rats fed a 5-HTP supplemented diet; format: in vivo; conditions: rats fed 0.2% 5-HTP diet from d13 pregnancy, vs control diet
Experimental: FIG. 2 depicts the serum and milk calcium concentrations in rats fed 0.2% 5-HTP (n=15) from d13 pregnancy-d9 lactation compared to rats fed a control (n=15) breeder diet at (A) day 1 of lactation and (B) day 9 of lactation.
Based on the foregoing results, studies were conducted to establish, in practice, that feeding a diet supplemented with 5-HTP would elevate circulating calcium levels in lactating animals. Serum and milk calcium concentrations were measured in rats fed a diet supplemented with 0.2% 5-HTP (n=15) from d13 pregnancy-d9 lactation, compared to rats fed a control (n=15) diet. Serum calcium concentrations were elevated by 5-HTP supplementation on dl of lactation, and subsequently, milk calcium levels were elevated by 5-HTP on d9 of lactation (FIG. 2).

[4] = system: HC11 cells; experiment: PTHrP gene expression in lactogen-treated HC11 cells (real-time RT-PCR); format: cell-based, mouse; conditions: lactogen-treated rodent HC11 cells
Text: (§1) Cell culture. Primary bovine mammary epithelial cells grown in collagen gels were induced to differentiate by release of the gel from the substratum, and treating with lactogenic hormones as described (15,31). The mouse mammary epithelial cells (HC11) were maintained under growth medium conditions, and lactogen-induced by treatment of 3 day confluent cultures with prolactin, insulin, and cortisol as previously described (17).
(§2) Quantitative real-time RT-PCR amplification. Total RNA was isolated using TRIreagent® (Molecular Research) following manufacturer's procedures. RNA quality was determined through spectrophometric methods on the Nanodrop 2000 (Thermo Scientific). A total of […] was reverse transcribed using the QuantiTect reverse transcription kit (Qiagen). Quantitative real-time RT-PCR was performed using the Applied Biosystems Step One Plus system (Applied Biosystems) using fast SYBR green master mix (Applied Biosystems). The following conditions were utilized: 95′C for 20 sec. followed by 40 cycles of 95′C for 3 sec., 60′C for 30 sec.
To determine whether PTHrP expression in mammary epithelial cells was directly responsive to 5-HT two cell models of lactogenic mammary epithelium were studied: lactogen-treated rodent HC11 cells, and primary bovine mammary epithelial cells embedded in floating collagen gels. […]

[5] = system: primary bovine mammary epithelial cells; experiment: PTHrP gene expression in primary bovine mammary epithelial cells in floating collagen gels (real-time RT-PCR); format: cell-based; conditions: primary bovine mammary epithelial cells embedded in floating collagen gels
Text: as §1
Primary bovine mammary epithelial cells (pBMEC) were obtained as a generous gift from Dr. Robert Collier at the University of Arizona and cultured as previously described (15, 31).
as §2, with “30 sec. […]” for “30 sec.”

[6] = system: vascular smooth muscle cells; conditions: previous study; cited from earlier work
[7] = system: mammary cells; experiment: PTHrP induction by prolactin in mammary epithelium cell cultures; format: cell-based; conditions: conventional cell cultures of mammary epithelium
Text: PTHrP is undetectable in the circulation except during lactation, in advanced metastatic disease, or in patients with hyperprolactinemia.

Molecule: N[C@@H](Cc1c[nH]c2ccc(O)cc12)C(=O)O [5-HTP, 5-Hydroxytryptophan]
- plasma PTHrP [1]: time-dependent increase
- circulating 5-HT (serum) [2]: elevation
- circulating PTHrP (plasma) [2]: elevation
- milk calcium levels ([3]; d9 of lactation): elevated
- serum calcium concentrations ([3]; dl of lactation): elevated

Molecule: NCCc1c[nH]c2ccc(O)cc12 [5-HT, serotonin]
- PTHrP gene expression induction [4]: 8 fold
- PTHrP gene expression induction [5]: 20 fold
- PTHrP expression [6]: induced

B1: prolactin (protein, UniProt P01236 29-227, looked up)
Prolactin: LPICPGGAARCQVTLRDLFDRAVVLSHYIHNLSSEMFSEFDKRYTHGRGFITKAINSCHTSSLATPEDKEQAQQMNQKDFLSLIVSILRSWNEPLYHLVTEVRGMQEAPEAILSKAVEIEEQTKRLLEGMELIVSQVHPETKENEIYPVWSGLPSLQMADEESRLSAYYNLLHCLRRDSHKIDNYLKLLKCRIIHNNNC
notes: prolactin hormone
- PTHrP induction [7]: did not induce
